Patent publication US7968526B2, “Antisense oligonucleotides directed to ribonucleotide reductase R2 and uses thereof in the treatment of cancer” (Lorus Therapeutics Inc., priority 2003, dated 2011)
Entries after “also recorded” stand apart in the source; their conditions may differ.

Legend:
Assay type in all cases: in vivo, human cells in mice
[1] = system: SIHA human cervical cancer cells; assay: SIHA cervical tumour growth in SCID mice (3.10)
Experimental: Treatments lasted for 14 days thereafter. Antitumour activities were estimated by the inhibition of tumour volume, which was measured with a caliper on four different occasions over the treatment period. Each point represents mean tumour volume calculated from 5 animals per experimental group. […] Control animals (control) received saline alone for the same period. At the end of the treatments, the animals were sacrificed, tumours were excised and their weights were measured. Each bar represents mean tumour weight calculated from 6 animals per experimental group. […] Treatments lasted for 24 days thereafter. Antitumour activities were estimated by the inhibition of tumour volume, which was measured with a caliper at two-day intervals over the treatment period. Each point represents mean tumour volume calculated from 4 animals per experimental group. […] Treatments lasted for 24 days thereafter. Antitumour activities were estimated by the inhibition of tumour volume, which was measured with a caliper at two-day intervals over the treatment period. Each point represents mean tumour volume calculated from 4 animals per experimental group. […] Each point represents mean tumour volume calculated from 5 animals per experimental group. […] Antitumour activities were estimated by the inhibition of tumour volume, which was measured with a caliper on four different occasions over 16-day period. Each point represents mean tumour volume calculated from 5 animals per experimental group. […] Antitumour activities were estimated by the inhibition of tumour volume, which was measured with a caliper at two-day intervals over the treatment period. Each point represents mean tumour volume calculated from 5 animals per experimental group. […] Antitumour activities were estimated by the inhibition of tumour volume, which was measured with a caliper at various time intervals over the span of 30 days. Each point represents mean tumour volume calculated from 6 animals per experimental group. […] Antitumour activities were estimated by the inhibition of tumour volume, which was measured with a caliper. […]

[2] = system: Caki-1 human kidney cancer cells; assay: Caki-1 kidney tumour xenograft in SCID mice, controls and chemotherapeutics (Example 7)
Excerpt: CD-1 athymic female nude mice, BALB/c nu/nu nude mice, SCID, and SCID beige mice were purchased from Charles River Laboratories (Montreal, Canada) and experiments were typically initiated when the mice were 6-7 weeks old. […] Each experimental group typically contained 10 mice. After the size of tumour reached a mean tumour volume of 50-100 mm^3, treatment was initiated. […] Anti-tumour activity was estimated by the measurement of tumour volume with a calliper at two-three day intervals. Tumour volume was calculated by a formula L×W×H/2, where L indicates length, W indicates width and H indicates height. Within 24 hours after the last treatment, the animals were sacrificed and tumour and body weights were measured. Results of statistical analyses of the data are presented as P values in the figure legends.
Three additional treatment groups received: 5-FU (13 mg/kg/day×5), vinblastine (1 mg/kg/week) and gemcitabine (100 mg/kg/week). […] Calliper measurements at 1-week intervals were used to calculate tumour volumes. Each point in FIG. 28A represents mean tumour volume calculated from 10 animals per experimental group (with the exception of SEQ ID NO:1 which was 8 animals).
After 49 days the mice were sacrificed and the tumours weighed. Each bar represents the mean tumour weight and standard error calculated for each treatment group.

[3] = system: glioblastoma-astrocytoma (U-87 MG); assay: Human glioblastoma-astrocytoma tumour growth in mice
Experimental: Unless noted otherwise in this Example human tumour cell lines were purchased from the American Type Culture Collections (ATCC) (Rockville, Md.). Human colon adenocarcinoma (HT-29), non-small cell lung carcinoma (NCI-H460), melanoma (A2058), breast adenocarcinoma (MDA-MB-231), pancreatic carcinoma (AsPC-1 and SU.86.86), glioblastoma-astrocytoma (U-87 MG), renal carcinoma (A498 and Caki-1), ovarian carcinoma (SK-OV-3), cervical carcinoma (HeLa S3), prostate carcinoma (PC-3), bladder carcinoma (T24), Burkitt's lymphoma (Raji) and hepatocellular carcinoma (Hep G2) were maintained, according to ATCC recommendation, in α-MEM, RPMI1640, or McCoy's 5a medium (Invitrogen Canada Inc. Burlington, Ontario) supplemented with 10-20% fetal calf serum (FCS) at 37° C. in a humidified atmosphere containing 5% CO2. Normal human cell lines, WI-38 (human lung fibroblast) and HUVEC (human umbilical vein endothelial cells) and murine R3 (fibrosarcoma) and L (Ltk^− fibroblast) cells were maintained as mentioned above. […]
FIG. 29 summarizes the results of a statistical analysis of data compiled from a number of experiments in which the effect of SEQ ID NO:1 on tumour growth was assessed in human tumour cell xenografts in mice. […]

5′-GGCTAAATCGCTCCACCAAG-3′ (all phosphorothioate, sugars by position and methylation of C not given here) [SEQ ID NO: 1, fully phosphorothioated antisense oligonucleotide that hybridizes to the coding region of R2 mRNA]
Inhibition of tumour weight ([1]; Human Cervical Carcinoma^2): ~90% | Inhibition of tumour size ([1]; Human Cervical Carcinoma^2 in SCID mice, Day 22 after tumour implantation): Inhibition of tumour size by approximately 90% | Inhibitory effect on tumour growth (tumour volume and weight, FIG. 22) ([1]; SIHA, SCID mice, 10 mg/kg i.v. every other day, 16 days): strong inhibitory effects on the growth of human cervical carcinoma | Effect on tumour growth (volume and weight) ([2]; Caki-1, SCID mice, oligonucleotides 10 mg/kg/2 days i.v.): exceptional efficacy against renal cell carcinomas; also recorded: dramatic inhibition in growth of Caki-1 and A498 renal tumours; also recorded: superior to any of these compounds | Time of treatment to complete tumour regression ([2]; renal tumours, SCID mice, 10 mg/kg/2 days i.v., day 28 post implantation of tumour): ≤ 3 weeks | Inhibition of tumour weight [3]: ~65%
